Earlier results in patent US11241426B2, “Aqueous composition for ophthalmic or nasal administration” (NITTO MEDIC CO., LTD., priority 2017, dated 2022).

Molecular target: human H1 receptor (Homo sapiens, UniProt P35367)
Sequence (P35367 whole entry): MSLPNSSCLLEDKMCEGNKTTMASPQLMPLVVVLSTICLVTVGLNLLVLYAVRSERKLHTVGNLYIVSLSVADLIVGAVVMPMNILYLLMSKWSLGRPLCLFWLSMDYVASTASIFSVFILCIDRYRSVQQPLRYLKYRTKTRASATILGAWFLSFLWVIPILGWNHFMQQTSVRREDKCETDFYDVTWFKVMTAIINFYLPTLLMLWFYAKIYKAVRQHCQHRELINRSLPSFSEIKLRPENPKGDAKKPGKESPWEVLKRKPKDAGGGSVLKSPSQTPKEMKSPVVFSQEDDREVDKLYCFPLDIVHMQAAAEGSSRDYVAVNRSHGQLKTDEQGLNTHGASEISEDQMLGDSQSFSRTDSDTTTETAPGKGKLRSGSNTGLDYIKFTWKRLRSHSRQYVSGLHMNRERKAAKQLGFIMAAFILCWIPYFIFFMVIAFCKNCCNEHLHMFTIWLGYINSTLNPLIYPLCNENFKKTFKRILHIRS

affinity for the human H1 receptor, fold higher than that of cetirizine (relative to cetirizine): about 2 fold
affinity for the human H1 receptor, fold higher than that of the S-enantiomer, dextrocetirizine (relative to dextrocetirizine): about 30 fold
Compound: O=C(O)COCCN1CCN([C@H](c2ccccc2)c2ccc(Cl)cc2)CC1 [Levocetirizine]
